These results are taken from US12195473B2, “KRAS mutant protein inhibitors” (JACOBIO PHARMACEUTICALS CO., LTD, priority 2019, dated 2025).

Where two headings read alike, the source gives them in different places.

The subject of data set [1] is HIS-KRAS (G12C). In kind it is biochemical. Conditions: read-out: SOS1 catalyzed nucleotide exchange IC50.
Data set [2] relates to NCI-H358 cells expressing KRAS G12C. In words: Phospho-ERK1/2(THR202/TYR204) HTRF assay. In kind it is cell-based. Conditions: 2 hours incubation, read-out: p-ERK IC50. How it is done: NCI-H358 cells expressing KRAS G12C were cultured in RPMI 1640 medium (Gibco) containing 10% fetal bovine serum (Gibco). The NCI-H358 cells in culture medium were seeded in 96-well plates at a concentration of 40,000 cells/well and then put in a 37° C./5% CO2 cell incubator to incubate overnight. The next day, culture medium was removed and the compound diluted in assay medium (RPMI 1640, 0.1% FBS) was added in each well. After 2 hours incubation in a 37° C./5% CO2 cell incubator, the assay medium in 96-well plates was removed, then 50 μL of 1× blocking reagent-supplemented lysis buffer (Cisbio) was added and the plates were incubated at 25° C. for 45 min with shaking. 10 μL of cell lysates from the 96-well plates were transferred to a 384-well plate (Greiner) containing 2.5 μL/well HTRF® pre-mixed antibodies (Cisbio 64AERPEH). Incubate 4 hours at 25° C. and then read HTRF signals on Tecan Spark multimode microplate reader. The data were analyzed using a 4-parameter logistic model to calculate IC50 values.
(In general: In TR-FRET formats the signal depends on donor and acceptor labels being close together.)

The nature of data set [3]: Mouse pharmacokinetic study. It is filed as in vivo, Balb/c mouse. Conditions: for clearance / Vd / Cmax / AUC(0-t) / bioavailability: plasma, Balb/c mouse (female); for clearance / Vd: 3 mg/kg, iv; for Vd: read-out: Vss; for Cmax / AUC(0-t) / bioavailability: 10 mg/kg, po; for AUC(0-t): read-out: AUC0-24 h; for bioavailability: read-out: Oral BA (F %). As to the method:
3. Mouse Pharmacokinetic Study
The purpose of this study was to evaluate the pharmacokinetic properties of compounds in Balb/c mouse (♀) following single dose administration. The day before administration, mice were fasted overnight and free access to water. Six mice were needed for each compound and the six mice were divided into two groups (n=3/group), group A and group B. Mice in group A were treated with a single 3 mg/kg dose of compound (iv). Mice in group B were treated with a single 10 mg/kg dose of compound (po). For each mouse in group A, blood samples were collected at pre-dose, and at the time point of 0.083, 0.25, 0.5, 1, 2, 4, 6, 8 and 24 h post-dose. For each mouse in group B, blood samples were collected at pre-dose, and at the time point of 0.25, 0.5, 1, 2, 3, 4, 6, 8 and 24 h post-dose. Blood samples were placed on ice until centrifugation to obtain plasma samples. The plasma samples were stored at −80° C. until analysis. The concentration of compound in plasma samples were determined using a LC-MS/MS method.

The nature of data set [4]: Dog pharmacokinetic study. In kind it is in vivo, beagle dog. Particulars: plasma, beagle dog; for clearance / Vd: 1 mg/kg, iv; for Vd: read-out: VSS; for AUC(0-t) / Cmax / bioavailability: 10 mg/kg, po; for AUC(0-t): read-out: AUC0-24 h; for Cmax: read-out: Cmax; for bioavailability: read-out: Oral BA (F %). As to the method: 4. Dog Pharmacokinetic Study
The purpose of this study was to evaluate the pharmacokinetic properties of compounds in beagle dog following single dose administration. The day before administration, dogs were fasted overnight and free access to water. Four beagle dogs were needed for each compound and the four dogs were divided into two groups (one male (♂) and one female (♀) in each group). Dogs in group A were treated with a single 1 mg/kg dose of compound (iv). Dogs in group B were treated with a single 10 mg/kg dose of compound (po). For dogs in group A, blood samples were collected at pre-dose, and at the time point of 0.083, 0.25, 0.5, 1, 2, 4, 6, 8 and 24 h. For dogs in group B, blood samples were collected at pre-dose, and at the time point of 0.25, 0.5, 1, 2, 4, 6, 8 and 24 h post-dose. Blood samples were placed on ice until centrifugation to obtain plasma samples. The plasma samples were stored at −80° C. until analysis. The concentration of compound in plasma samples were determined using a LC-MS/MS method.

As for `C=CC(=O)N1CCN(c2c(C#N)c(=O)n(-c3c(C(C)C)ncnc3C(C)C)c3nc(-c4c(N)cccc4F)c(Cl)cc23)CC1` [Amgen 6.3, 4-(4-acryloylpiperazin-1-yl)-7-(2-amino-6-fluorophenyl)-6-chloro-1-(4,6-diisopropylpyrimidin-5-yl)-2-oxo-1,2-dihydro-1,8-naphthyridine-3-carbonitrile], in data set [1] (GDP-loaded HIS-KRAS (G12C), 1 hour pre-incubation with compound, TR-FRET), the 50% inhibitory concentration (IC50) (in general, the midpoint of a concentration-inhibition curve) was determined as 0.00277 µM. The IC50 in data set [2] (Homo sapiens) stood at 0.0201 µM. In addition, in data set [3], the clearance (in general, the volume of plasma or blood freed of the substance per unit of time) turned out to be 1.92 L/h/kg; the Vd stood at 1.4 L/kg; the concentration peaked (Cmax) at 1.59 µg/mL; the AUC(0-t) came to 1.66 µg·h/mL. Moreover, in data set [3], the bioavailability was found to be 32%. In data set [4] (female), the clearance was determined as 19.7 L/h/kg and the Vd is 3.1 L/kg. In data set [4] (male), the clearance is 14.3 L/h/kg, the Vd turned out to be 2.3 L/kg, the AUC(0-t) was 0.0051 µg·h/mL and the Cmax (usually the maximum level reached in the sampled fluid or tissue) was determined as 0.008 µg/mL. In addition, the bioavailability in data set [4] (male) is 0.7%.

As to `C=CC(=O)N1CCN(c2c(C#N)c(=O)n(-c3c(C)ccnc3C(C)C)c3nc(-c4c(N)c(F)c(F)c(F)c4F)c(Cl)cc23)[C@@H](C)C1` [Compound 11, 4-((S)-4-acryloyl-2-methylpiperazin-1-yl)-7-(2-amino-3,4,5,6-tetrafluorophenyl)-6-chloro-1-(2-isopropyl-4-methylpyridin-3-yl)-2-oxo-1,2-dihydro-1,8-naphthyridine-3-carbonitrile], the “Pharmacokinetic properties (in words)” value in data set [3] (mouse model, compared with Compound A, Amgen 6 and Amgen 6.3) is listed as “excellent pharmacokinetic properties”. In data set [3], the clearance amounted to 0.432 L/h/kg, the Vd turned out to be 1 L/kg, the Cmax turned out to be 3.34 µg/mL and the AUC(0-t) is 9.59 µg·h/mL. Moreover, in data set [3], the bioavailability worked out at 38%.

With `C=CC(=O)N1CCN(c2c(C#N)c(=O)n(-c3c(C)ccnc3C(C)C)c3nc(-c4ccccc4F)c(Cl)cc23)CC1` [Amgen 6, 4-(4-acryloylpiperazin-1-yl)-6-chloro-7-(2-fluorophenyl)-1-(2-isopropyl-4-methylpyridin-3-yl)-2-oxo-1,2-dihydro-1,8-naphthyridine-3-carbonitrile], in data set [2] (Homo sapiens), the IC50 was 0.0299 µM. Also, in data set [3], the clearance was determined as 4.32 L/h/kg, the Vd is 2.6 L/kg, the Cmax was 0.901 µg/mL and the AUC(0-t) stood at 1.03 µg·h/mL. Moreover, the bioavailability in data set [3] is 44%. In addition, in data set [4] (female), the clearance came to 0.93 L/h/kg, the Vd was 0.543 L/kg, the AUC(0-t) worked out at 1.33 µg·h/mL and the Cmax is 2.58 µg/mL. Also, the bioavailability in data set [4] (female) is 12.4%. Moreover, in data set [4] (male), the clearance came to 0.708 L/h/kg, the Vd is 0.412 L/kg, the AUC(0-t) stood at 2.94 µg·h/mL and the Cmax was 3.69 µg/mL. Moreover, the bioavailability in data set [4] (male) amounted to 20.9%.

Take `C=CC(=O)N1CCN(c2c(C#N)c(=O)n(-c3c(C)ccnc3C(C)C)c3nc(-c4c(N)c(F)c(F)c(F)c4F)c(Cl)cc23)CC1` (atropisomer, axis not shown; (P)) [Compound 1-1, (P)-4-(4-acryloylpiperazin-1-yl)-7-(2-amino-3,4,5,6-tetrafluorophenyl)-6-chloro-1-(2-isopropyl-4-methylpyridin-3-yl)-2-oxo-1,2-dihydro-1,8-naphthyridine-3-carbonitrile]: the IC50 in data set [1] came out at 0.0141 µM; in data set [2] it was 0.176 µM.
